Several values for one entry are separate records, joined by “and”; a condition that tells them apart may be missing. Equal entries are not always repeated. Structures can show the parent of a compound that is named as a salt.
Tests used:
[1] = system: Salmonella enterica sv. Typhimurium TA 98; assay: Ames test
Description: The test was performed according to a modified pre-incubation method [34]. The test compound was dissolved in DMSO and mixed with 20% (final concentration) cytochrome P450-enriched rat liver S9 post-mitochondrial fraction (20% w/v liver homogenate in 0.25 M Sucrose) in a phosphate buffer and added to an overnight bacterial culture. The mixture was divided into two samples and NADPH added to one of the samples to determine if the test compound requires cytochrome P450 bioactivation to be mutagenic. Both reactions (± NADPH) were incubated at 37 °C for 30 min and then added to a top agar solution containing 0.6% agar, 0.05 mM histidine and 0.05 mM biotin and plated on minimal glucose agar plates. Revertant colonies were counted after a 48 h-incubation at 37 °C. […] Acridine orange at 0.02 mM was also included as a positive control.

[2] = Forced degradation studies (HPLC); assay type: physicochemical
Description: HPLC conditions and equipment. The liquid chromatography system HITACHI High-Technologies Corporation (Tokyo, Japan) equipped with a solvent delivery pump (L-2130), a degasser, an autosampler (L-2200), a photodiode array detector (L-2455) and a column oven (L-2350) was used. […] The injection volume was 20 µL. Based on the registered absorption spectrum detection wavelength was selected as 230 nm. The analysis time was 15 min.
Irradiation conditions. Irradiation was conducted in a climatic chamber KBF-ICH 240 APT.lineTM (Binder GmbH, Tuttlingen, Germany) at 25 °C and 60% humidity using UVA radiation (320–400 nm) with maximum emission at 365 nm. The intensity of radiation was determined using a radiometer type VLX-3 W, Vilber Lourmat, with a CX-365 sensor, to be each time of […]. The distance between the samples and the radiation source was 13 cm.
Degradation in acidic solution. […] 8 mL of the examined solution was transferred to a glass vial and heated in an oven at 70 °C. The sample volume of 0.5 mL was taken and diluted with 0.5 mL of water. The solution was analyzed three times by HPLC method.
Degradation in basic solution. […] 4 mL of examined solution was transferred to glass vials of 8 mL capacity and heated in an oven at 70 °C. The volume of 0.5 mL was taken and diluted with 0.5 mL of 0.5 M HCl. The solution was analyzed three times by HPLC method.
Degradation in phosphate buffer at pH = 7.0. […] The volume of 8 mL of examined solution was transferred to glass vials of 8 mL capacity and stored in a dark place at 25 °C or heated in an oven at 70 °C. The volume of 0.5 mL of solution was taken and diluted with 0.5 mL of water. The solution was analyzed by HPLC method.
Degradation in the presence of oxidative agent. […] The samples were stored at 25 °C. The volume of 0.5 mL of solution was taken and diluted with 0.5 mL of water. The solution was analyzed three times by HPLC method. […] The volume of 8 mL of examined solution was transferred to glass vials of 8 mL capacity and heated in an oven at 40 °C. The volume of 0.5 mL of solution was taken and diluted with 0.5 mL of water. The solution was analyzed by HPLC method.
Degradation in the presence of reducing agent. […] 8 mL of the examined solution was transferred to 8 mL glass vials and stored at 25 °C and 40 °C. The volume of 0.5 mL of solution was taken and diluted with 0.5 mL of water. The solution was analyzed three times by HPLC method.
Photodegradation under UV irradiation. […] 2 mL of the examined solution was transferred to a quartz Petri-dishes with diameter 4 cm and sealed with parafilm. Dark control samples were prepared in the same way, but they were secured with aluminum foil. The examined samples and the dark control samples were placed in a climatic chamber at […] and humidity 60% and irradiated for 96 h. The volume of 0.5 mL of solution was taken to the vials and the solution was analyzed by HPLC method.

[3] = pKa by potentiometric titration; assay type: physicochemical; settings: aqueous solution titrated with 0.051 M NaOH; 37 °C
Description: pKa. The assay was performed by potentiometric titration, at 37 °C. The method is based on the additional portions of 0.051 M NaOH solution to the aqueous solution of test compounds, on electromagnetic stirrer with contact thermometer (Heidolph MR Hei-Standard). NaOH solution was added in 500 μL portions using Eppendorf automatic pipette. Waiting a few seconds after each titrant addition allowed the solution temperature to stabilize. After this time pH was recorded with the use of pH-meter CP-551 (Elmetron) for precise determination of pH in laboratory conditions (pH 0–14; pH accuracy ± 0.01) with combined chloride electrode OSH-10-10 (enables measurements in the temperature range 0–60 °C and pH range 1–12). Then, next portion of titrant was added. Titration was completed after 15 mL of NaOH solution was added. Threefold repetitions of titration were applied. pKa of the tested compound was calculated on the basis of the pH values obtained.

[4] = system: rats; assay: Sciatic nerve ligation (SNL) model, von Frey test; assay type: in vivo; settings: rats; for Threshold ± S.E.M. / % Pre-Drug ± S.E.M.: 6 mg/kg b.w., i.p.

## CCC(CO)NCCOc1c(C)cccc1Cl (centres unmarked) [Compound 4, R,S-2-((2-(2-chloro-6-methylphenoxy)ethyl)amino)butan-1-ol]
[1]; 0.10 mM
  % of benzo[a]pyrene (+NADPH) control, + NADPH, Sample 1: 7.8%
  % of benzo[a]pyrene (+NADPH) control, + NADPH, Sample 2: 7.8%
  % of benzo[a]pyrene (+NADPH) control, − NADPH, Sample 1: 5.5%
  % of benzo[a]pyrene (+NADPH) control, − NADPH, Sample 2: 7.4%
[1]; 0.20 mM
  % of benzo[a]pyrene (+NADPH) control, + NADPH, Sample 1: 5.2%
  % of benzo[a]pyrene (+NADPH) control, + NADPH, Sample 2: 7.4%
  % of benzo[a]pyrene (+NADPH) control, − NADPH, Sample 1: 5.4%
  % of benzo[a]pyrene (+NADPH) control, − NADPH, Sample 2: 5.3%
[1]; 0.50 mM
  % of benzo[a]pyrene (+NADPH) control, + NADPH, Sample 1: 5.2%
  % of benzo[a]pyrene (+NADPH) control, + NADPH, Sample 2: 7%
  % of benzo[a]pyrene (+NADPH) control, − NADPH, Sample 1: 4.9%
  % of benzo[a]pyrene (+NADPH) control, − NADPH, Sample 2: 6.7%
[1]; 0.1–0.5 mM, compared to DMSO solvent control
  mutagenicity: non-mutagenic

## CCC(CO)NCCOc1c(C)cccc1Cl (centres unmarked) [KM-408, R,S-2-((2-(2-chloro-6-methylphenoxy)ethyl)amino)butan-1-ol hydrochloride]
[2]; 0.5 M HCl, 70 °C, 232 h
  degradation: 1.65%
[2]; 0.5 M NaOH, 70 °C, 232 h
  degradation: 2.02%
[2]; CuSO4, 192 h
  degradation: 1.65%
[2]; H2O2, 168 h
  degradation products: 1.84%
[2]; phosphate buffer pH 7.0, 25 °C, 240 h
  degradation: 1.52%
[2]; phosphate buffer pH 7.0, 70 °C, 168 h
  degradation: 1.96%
[2]; photodegradation, 96 h
  degradation: 1.43%
[2]; reducing agent, 40 °C, 168 h
  degradation: 1.50%
[3]
  pKa: 9.5
[4]; 0.0 h (pre-drug)
  Threshold ± S.E.M.: 2.88 ± 0.59 g
[4]; 0.5 h
  % Pre-Drug ± S.E.M.: 131 ± 15%
  Threshold ± S.E.M.: 3.07 ± 0.51 g
[4]; 1.0 h
  % Pre-Drug ± S.E.M.: 202 ± 19%
  Threshold ± S.E.M.: 5.94 ± 1.19 g
[4]; 2.0 h
  % Pre-Drug ± S.E.M.: 301 ± 45 %
  Threshold ± S.E.M.: 8.23 ± 1.56 g
[4]; 4.0 h
  % Pre-Drug ± S.E.M.: 260 ± 39 %
  Threshold ± S.E.M.: 7.09 ± 1.31 g
[4]; 6.0 h
  % Pre-Drug ± S.E.M.: 186 ± 31%
  Threshold ± S.E.M.: 5.34 ± 1.32 g
[4]; ip
  SNL TPE: 2 h
[4]; ip, von Frey test
  SNL: active at: 6.0 mg/kg and 6 mg/kg
